What was measured:
[1] = system: endogenous specific binding proteins (FKBP) in whole blood; test: ACMIA assay for tacrolimus: release of tacrolimus from endogenous binding substances in spiked whole blood by releasing agent; conditions: for Drug concentration measured / Percent (%) displaced vs. SIRO: releasing agent 10 μg/mL
Experimental: (§1) Testing was carried out using the DIMENSION® RxL analyzer, available from Siemens Healthcare Diagnostics Inc., Newark Del. The instrument was employed using ACMIA immunoassay technology. The ACMIA assay method is described in U.S. Pat. Nos. 7,842,475, 7,186,518, 5,147,529, 5,128,103, 5,158,871, 4,661,408, 5,151,348, 5,302,532, 5,422,284, 5,447,870, and 5,434,051, the disclosures of which are incorporated herein in their entirety. In the embodiment of the ACMIA method used herein and discussed in more detail below, competition between tacrolimus analog on chrome particles and tacrolimus in patient samples for antibody for tacrolimus conjugated to an enzyme (the “conjugate”) is utilized to determine the amount of tacrolimus in patient samples. Conjugate that binds to the tacrolimus analog on chrome particles is removed by magnetic separation. The enzymatic activity from the conjugate remaining in the supernatant is measured and is directly proportional to the amount of tacrolimus in the patient sample. […] The enzymatic activity observed when no chrome particle is present is indicative of the total amount of enzymatic activity in the conjugate.
(§2) Preparation of pretreatment reagent solution. This pretreatment solution was prepared to contain an amount of releasing agent, 6.8 mg/mL PIPES 1.5 sodium salt (buffer), 0.3 mg/mL EDTA disodium (clot prevention agent), 1.0 mg/mL saponin (hemolytic agent), 0.2% PROCLIN® 300 (preservative), 0.024 mg/mL neomycin sulfate (preservative) and 0.99 mg/mL NaN3, pH 6.5. The amount of releasing agent in each of the pretreatment reagent solutions was 10 μg/mL. The releasing agent concentration in the final reaction mixture was equivalent to 46.7 μg/mL of the analog added from the sample.
(§3) Preparation of anti-tacrolimus antibody-β-galactosidase conjugate. Monoclonal anti-tacrolimus antibody (clone 1H6, see for example U.S. Pat. No. 7,078,495) is conjugated to β-galactosidase using a standard heterobifunctional SMCC (succinimidyl trans-4-(N-maleimidylmethyl)cyclohexane-1-carboxylate) linker according to known techniques. The antibody conjugate solution contains approximately 7.5 μg/mL anti-tacrolimus antibody-β-galactosidase conjugate, 30 mg/mL protease free bovine serum albumin, 0.126 mg/mL MgCl2, 0.03 mL/mL of ethylene glycol, 35.14 mg/mL PIPES 1.5 sodium salt, 50 mg/mL NaCl and beta-gal mutein (inactivated β-galactosidase), pH 6.5.
The chrome particle reagent contained approximately 2.5 mg/mL tacrolimus chrome particle slurry, 60.8 mg/mL trehalose dihydrate and 7.2 mg/mL CARBOWAX®.
(§4) Preparation of samples. Aliquots of a whole blood pool are spiked with an amount of sirolimus so that the resulting concentration of sirolimus in the whole blood samples in the calibrators is as set forth in Table 1 (0.0, 5.1, 10.1, 20.6 and 31.6 ng/mL). Aliquots of a whole blood pool are spiked with an amount of tacrolimus so that the resulting concentration of […] (0.0, 2.6, 5.3, 11.6 and 30.1 ng/mL).
(§5) Pretreatment of samples. A set of samples was treated as follows: To each sample was added an amount of the pretreatment reagent solution from above for displacing sirolimus in the sample from endogenous specific binding proteins. The samples were incubated at 37° C. for a period of 140 minutes. Subsequently, each sample was subjected to the aforementioned assay, which is further described below; and signal (mAU) was measured and related to a concentration of analyte that represents the amount of free analyte (analyte that is not bound by endogeneous binding substances plus analyte that was displaced from endogeneous binding substances) in the samples.
The above format for releasing an analyte (using the concentration of releasing agent (Displacer) shown) and conducting an assay for the analyte was repeated for samples containing tacrolimus.

[2] = system: monoclonal anti-sirolimus antibody (clone 155-M1); test: Calculated cross-reactivity of releasing agent with antibody of the sirolimus ACMIA assay; assay type: binding; conditions: for Cross-reactivity with the sirolimus assay antibody: result in words; for Calculated antibody cross-reactivity (percent (%) times 100): sirolimus assay, measured at calibrator of 0 ng/mL, measured value/46.7 μg/mL analog
Experimental: as §3, with “anti-sirolimus” for “anti-tacrolimus”, “155-M1 from Wyeth Pharmaceutical) was” for “1H6, see for example U.S. Pat. No. 7,078,495) is”, “contained” for “contains”
(§6) Anti-sirolimus antibody-β-galactosidase conjugate (50 μL) was added next to each of the reaction vessels and the mixture was held for a period of time (10 to 15 minutes) and at a temperature of 43° C. to allow sirolimus, if present, to react with the antibody reagent. Chrome particles with immobilized sirolimus-biotin conjugate to streptavidin-coated chrome particle were added (50 μL) to each of the reaction vessels and were allowed to bind un-bound conjugate. […] The sirolimus-bound conjugate was detected by transferring the supernatant from each of the reaction vessels to a photometric cuvette and measuring the enzymatic rate of the conjugate in the presence of chlorophenol red-β-D-galactopyranoside (CPRG). The rate for each reaction vessel was measured bichromatically at 577 and 700 nm. The results are summarized in Table 1 under the categories: instrument signal observed for calibrators, drug concentration measured in ng/mL, percent (%) displaced vs. SIRO and calculated antibody cross-reactivity (percent (%) times 100). Cross-reactivity was based on the following: • 1) 70 μL of pretreatment reagent solution was added to the reaction medium versus 15 μL of sample, total reaction mixture volume=305 μL. • 2) 10 μg/mL of SIRO analog was in the pretreatment reagent solution. • 3) 10 μg/mL of SIRO analog from pretreatment reagent is equivalent to 46.7 μg/mL of SIRO analog added from sample (Calculation: 70 μL×10 μg/mL/15 μL=46.7 μg/mL) • 4) Measured sirolimus value at 0 ng/mL calibrator. • 5) Measure value/46.7 is % cross-reactivity.

[3] = system: endogenous specific binding proteins (FKBP) in whole blood; test: ACMIA assay for sirolimus: release of sirolimus from endogenous binding substances in spiked whole blood by releasing agent; conditions: for Drug concentration measured / Percent (%) displaced vs. SIRO: releasing agent 10 μg/mL
Experimental: as §1, §2
Preparation of anti-sirolimus antibody-β-galactosidase conjugate. […] The antibody conjugate solution contained approximately 7.5 μg/mL anti-sirolimus antibody-β-galactosidase conjugate, 30 mg/mL protease free bovine serum albumin, 0.126 mg/mL MgCl2, 0.03 mL/mL of ethylene glycol, 35.14 mg/mL PIPES 1.5 sodium salt, 50 mg/mL NaCl and beta-gal mutein (inactivated β-galactosidase), pH 6.5.
Magnetic chrome particle preparation. Sirolimus chrome particles (immunoassay solid phase) were prepared by conjugating sirolimus-biotin conjugate to streptavidin-coated chrome particle (prepared in a manner similar to that described in U.S. Pat. No. 7,842,475). The chrome particle reagent contained approximately 2.5 mg/mL sirolimus chrome particle slurry, 60.8 mg/mL trehalose dihydrate and 7.2 mg/mL CARBOWAX®.
as §4, §5
Assay. The ACMIA assay for sirolimus was carried out as follows: 15 μL of a whole blood sample from above was mixed with the pretreatment reagent solution from above (Displacer) (Table 1) in a vessel on the DIMENSION® RxL analyzer.

[4] = system: monoclonal anti-tacrolimus antibody (clone 1H6); test: Calculated cross-reactivity of releasing agent with antibody of the tacrolimus ACMIA assay; assay type: binding; conditions: measured at calibrator of 0 ng/mL
Experimental: as §3
as §6, with “reagent.” for “reagent. Chrome particles with immobilized sirolimus-biotin conjugate to streptavidin-coated chrome particle were added (50 μL) to each of the reaction vessels and were allowed to bind un-bound conjugate.”, “cross-reactivity. […]” for “cross-reactivity.”

[5] = tacrolimus assay, result in words
[6] = tacrolimus calibrator 0.0 ng/mL
[7] = tacrolimus calibrator 2.6 ng/mL
[8] = tacrolimus calibrator 5.3 ng/mL
[9] = tacrolimus calibrator 11.6 ng/mL
[10] = tacrolimus calibrator 30.1 ng/mL
[11] = sirolimus assay, result in words
[12] = sirolimus calibrator 10.1 ng/mL
[13] = sirolimus calibrator 20.6 ng/mL
[14] = sirolimus calibrator 31.6 ng/mL

Compound	Drug concentration measured [1, 6]	Drug concentration measured [1, 7]	Percent (%) displaced vs. SIRO [1, 7]	Drug concentration measured [1, 8]	Percent (%) displaced vs. SIRO [1, 8]	Drug concentration measured [1, 9]	Percent (%) displaced vs. SIRO [1, 9]	Drug concentration measured [1, 10]	Percent (%) displaced vs. SIRO [1, 10]	Calculated antibody cross-reactivity (percent (%) times 100) [2]	Displacement efficiency compared with mixture of V and VI [3, 11]	Drug concentration measured ([3]; sirolimus calibrator 0.0 ng/mL)	Drug concentration measured ([3]; sirolimus calibrator 5.1 ng/mL)	Percent (%) displaced vs. SIRO ([3]; sirolimus calibrator 5.1 ng/mL)	Drug concentration measured [3, 12]	Percent (%) displaced vs. SIRO [3, 12]	Drug concentration measured [3, 13]	Percent (%) displaced vs. SIRO [3, 13]	Drug concentration measured [3, 14]	Percent (%) displaced vs. SIRO [3, 14]	also measured
Diels-Alder adducts of diethyl azidodicarboxylate (DAC) and sirolimus [Mixture IX + X]	0.0 ng/mL	2.4 ng/mL	90%	4.1 ng/mL	78%	9.2 ng/mL	79%	22.6 ng/mL	75%	14.82 % × 100	lower displacement efficiency	69.2 ng/mL	93.8 ng/mL	1844%	100.7 ng/mL	994%	119.9 ng/mL	584%	113.0 ng/mL	357%	Displacement efficiency compared with mixture of V and VI [1, 5]: lower displacement efficiency; Cross-reactivity with the sirolimus assay antibody [2]: higher cross-reactivity; Calculated antibody cross-reactivity (percent (%) times 100) [4]: 0.01 % × 100
CO[C@H]1C[C@@H]2CC[C@@H](C)[C@@](O)(O2)C(=O)C(=O)N2CCCC[C@H]2C(=O)O[C@H]([C@H](C)C[C@@H]2CC[C@@H](O)[C@H](OC)C2)CC(=O)[C@H](C)/C=C(\C)[C@@H](O)[C@@H](OC)C(=O)[C@H](C)C[C@H](C)CCCCCC1C (stereo partly shown) [XI, hydrogenated sirolimus]	0.3 ng/mL	1.8 ng/mL	68%	2.9 ng/mL	54%	5.6 ng/mL	48%	16.0 ng/mL	53%	15.56 % × 100	lower displacement efficiency	72.7 ng/mL	82.5 ng/mL	1622%	96.4 ng/mL	951%	94.0 ng/mL	458%	85.2 ng/mL	269%	Displacement efficiency compared with mixture of V and VI [1, 5]: lower displacement efficiency; Cross-reactivity with the sirolimus assay antibody [2]: higher cross-reactivity; Calculated antibody cross-reactivity (percent (%) times 100) [4]: 0.06 % × 100
Diels-Alder adducts of 4-phenyl-1,2,4-triazoline-3,5-dione (PTAD) and sirolimus [Mixture V + VI]	0.6 ng/mL	2.9 ng/mL	111%	4.7 ng/mL	89%	9.5 ng/mL	82%	23.5 ng/mL	78%	0.29 % × 100	–	1.4 ng/mL	5.8 ng/mL	114%	9.7 ng/mL	96%	16.8 ng/mL	82%	27.5 ng/mL	87%	Suitability as releasing agent for tacrolimus analyte [1, 5]: suitable as a releasing agents; Suitability as releasing agent for sirolimus analyte [3, 11]: suitable as a releasing agents; Calculated antibody cross-reactivity (percent (%) times 100) [4]: 0.13 % × 100
C=CC[C@@H]1/C=C(\C)C[C@H](C)C[C@H](OC)[C@H]2O[C@@](O)(C(=O)C(=O)N3CCCC[C@H]3C(=O)O[C@H](/C(C)=C/[C@@H]3CC[C@@H](O)[C@H](OC)C3)[C@H](C)[C@@H](O)CC1=O)[C@H](C)C[C@@H]2OC [Tacro, tacrolimus]	–	–	–	–	–	–	–	–	–	0.00 % × 100	lower displacement efficiency	-0.1 ng/mL	2.6 ng/mL	52%	4.1 ng/mL	40%	7.7 ng/mL	38%	13.0 ng/mL	41%	–

Source: patent US9121859B2, “Compounds and methods for determination of FKBP-binding immunosuppressant drugs” (Siemens Healthcare Diagnostics Inc., priority 2012, dated 2015)
